Source: patent publication US7067524B2, “Substituted phenyl naphthalenes as estrogenic agents” (Wyeth, priority 2001, dated 2006)
Read-outs that look alike come from different tables or passages of the source.

What was measured:
Lewis rats [1] = experiment: Lewis rat adjuvant-induced arthritis, treatment protocol; assay type: in vivo; conditions: for Joint inflammation score: 10 mg/kg sc daily from Day 8 after adjuvant
[2] = tested on: Sexually immature Sprague-Dawley rats; experiment: Rat uterotrophic test procedure (Procedure 1); assay type: in vivo
[3] = tested on: Sexually immature 129 SvE mice; experiment: Mouse uterotrophic test procedure (Procedure 2); assay type: in vivo; conditions: 50 mg/kg/day sc, days 22-25
Lewis rats [4] = experiment: Lewis rat adjuvant-induced arthritis, inhibition protocol; assay type: in vivo
HLA-B27 rats [5] = conditions: for Joint inflammation score: 10 mg/kg orally once per day
casein kinase II mRNA = experiment: Rat mammotrophic assay (mammary end bud test procedure); assay type: in vivo; conditions: ovariectomized rats, 20 mg/kg sc 6 days, with progesterone 30 mg/kg
HLA-B27 rats [6] = conditions: for Stool score (group's average score): 2=soft stool, 1=normal stool
[7] = tested on: Progesterone receptor mRNA; experiment: Progesterone receptor mRNA regulation in the preoptic area of the rat brain; assay type: in vivo; conditions: 10 mg/kg
[8] = Mankin scores, tarsal joints, 10 mg/kg, mean ± SD
[9] = synovitis histology, tarsal joints, 10 mg/kg, mean ± SD
[10] = joint histology, 10 mg/kg orally for 46 days
[11] = colon histological score, 10 mg/kg orally for 46 days

For N#Cc1cc(-c2ccc(O)c(F)c2)cc2ccc(O)cc12 [Example 1av, 3-(3-Fluoro-4-hydroxyphenyl)-7-hydroxy-1-naphthonitrile], the Joint inflammation score (Lewis rats [1]; Day 1, maximal score 12) was 11.33, the Joint inflammation score (Lewis rats [1]; Day 2, maximal score 12) was 10.83 and the Joint inflammation score (Lewis rats [1]; Day 3, maximal score 12) was 9.33. For the same compound, the Joint inflammation score (Lewis rats [1]; Day 4, maximal score 12) was 8.00, the Joint inflammation score (Lewis rats [1]; Day 5, maximal score 12) was 5.83 and the Joint inflammation score (Lewis rats [1]; Day 6, maximal score 12) was 3.33. It also gave a Joint inflammation score (Lewis rats [1]; Day 7, maximal score 12) of 3.00, a Joint inflammation score (Lewis rats [1]; Day 8, maximal score 12) of 2.50 and a Joint inflammation score (Lewis rats [1]; Day 9, maximal score 12) of 2.50. For the same compound, the Joint inflammation score (Lewis rats [1]; Day 10, maximal score 12) was 2.50, the Joint inflammation score (Lewis rats [1]; Day 11, maximal score 12) was 2.50 and the Joint inflammation score (Lewis rats [1]; Day 12, maximal score 12) was 2.50. The Joint inflammation score (Lewis rats [1]; Day 13, maximal score 12) was 2.50, the Joint inflammation score (Lewis rats [1]; Day 14, maximal score 12) was 2.50 and the Joint inflammation score (Lewis rats [1]; Day 15, maximal score 12) was 2.00. The Joint inflammation score (Lewis rats [1]; Day 16, maximal score 12) was 1.33, the Joint inflammation score (Lewis rats [1]; Day 17, maximal score 12) was 1.00 and the “Cartilage Cells (0–3)” value (Lewis rats [1]; [8]) was 0.75 ± 0.42. For the same compound, the “Cartilage Structure (0–6)” value (Lewis rats [1]; [8]) was 1.83 ± 0.68, the “Saffranin-O/Fast Green Staining (0–4)” value (Lewis rats [1]; [8]) was 1.25 ± 0.52 and the “Tidemark Integrity (0–1)” value (Lewis rats [1]; [8]) was 0. For the same compound, the “Total Mankin Score (0–14)” value (Lewis rats [1]; [8]) was 3.83 ± 1.21, the “Fibroplasia (0–3)” value (Lewis rats [1]; [9]) was 0.75 ± 0.42 and the “Inflammatory Cells (0–3)” value (Lewis rats [1]; [9]) was 1.25 ± 0.42. For the same compound, the “Pannus (0–1)” value (Lewis rats [1]; [9]) was 0.33 ± 0.61, the “Synovial Structure (0–3)” value (Lewis rats [1]; [9]) was 1.58 ± 0.38 and the “Total Synovitis Score (0–10)” value (Lewis rats [1]; [9]) was 3.83 ± 0.93. The “mean uterine weight (mg) ± SEM” value ([2]; 2 mg/rat/day coadministered with 17α-ethinyl-17β-estradiol 0.06 μg/rat/day (antagonist mode)) was 81.9 ± 4.2 mg, the “mean uterine weight (mg) ± SEM” value ([2]; 2 mg/rat/day sc, days 19-21) was 23.3 ± 1.3 mg and the “mean uterine weight (mg) ± SEM” value [3] was 12.6 ± 0.8 mg. It also gave a Joint inflammation score (Lewis rats [4]; sc daily from Day 1, Day 1, maximal score 12) of 0.00, a Joint inflammation score (Lewis rats [4]; sc daily from Day 1, Day 2, maximal score 12) of 0.00 and a Joint inflammation score (Lewis rats [4]; sc daily from Day 1, Day 3, maximal score 12) of 2.66. The Joint inflammation score (Lewis rats [4]; sc daily from Day 1, Day 4, maximal score 12) was 1.83, the Joint inflammation score (Lewis rats [4]; sc daily from Day 1, Day 5, maximal score 12) was 2.66 and the Joint inflammation score (Lewis rats [4]; sc daily from Day 1, Day 6, maximal score 12) was 2.16. For the same compound, the Joint inflammation score (Lewis rats [4]; sc daily from Day 1, Day 7, maximal score 12) was 2.00, the Joint inflammation score (Lewis rats [4]; sc daily from Day 1, Day 8, maximal score 12) was 1.66 and the Joint inflammation score (Lewis rats [4]; sc daily from Day 1, Day 9, maximal score 12) was 2.00. It also gave a Joint inflammation score (Lewis rats [4]; sc daily from Day 1, Day 10, maximal score 12) of 2.00, a Joint inflammation score (Lewis rats [4]; sc daily from Day 1, Day 11, maximal score 12) of 1.66 and a Joint inflammation score (Lewis rats [4]; sc daily from Day 1, Day 12, maximal score 12) of 1.66. It also gave a Joint inflammation score (Lewis rats [4]; sc daily from Day 1, Day 13, maximal score 12) of 2.16, a Joint inflammation score (Lewis rats [4]; sc daily from Day 1, Day 14, maximal score 12) of 2.00 and a Joint inflammation score (Lewis rats [4]; sc daily from Day 1, Day 15, maximal score 12) of 2.00. The Joint inflammation score (Lewis rats [4]; sc daily from Day 1, Day 16, maximal score 12) was 1.00, the Joint inflammation score (Lewis rats [4]; sc daily from Day 1, Day 17, maximal score 12) was 1.33 and the Joint inflammation score (HLA-B27 rats [5]; Day 29) was 0.5. The Joint inflammation score (HLA-B27 rats [5]; Day 30) was 0.5, the Joint inflammation score (HLA-B27 rats [5]; Day 31) was 0.5 and the Joint inflammation score (HLA-B27 rats [5]; Day 32) was 1. It also gave a Joint inflammation score (HLA-B27 rats [5]; Day 33) of 1.75, a Joint inflammation score (HLA-B27 rats [5]; Day 34) of 1.5 and a Joint inflammation score (HLA-B27 rats [5]; Day 35) of 1. For the same compound, the Joint inflammation score (HLA-B27 rats [5]; Day 36) was 1.75, the Joint inflammation score (HLA-B27 rats [5]; Day 37) was 1.75 and the Joint inflammation score (HLA-B27 rats [5]; Day 38) was 1.5. For the same compound, the Joint inflammation score (HLA-B27 rats [5]; Day 39) was 0.75, the Joint inflammation score (HLA-B27 rats [5]; Day 40) was 0.75 and the Joint inflammation score (HLA-B27 rats [5]; Day 41) was 0.5. It also gave a Joint inflammation score (HLA-B27 rats [5]; Day 42) of 1.5, a Joint inflammation score (HLA-B27 rats [5]; Day 43) of 1.25 and a Joint inflammation score (HLA-B27 rats [5]; Day 44) of 1.75. The Joint inflammation score (HLA-B27 rats [5]; Day 45) was 1.25, the Joint inflammation score (HLA-B27 rats [5]; Day 46) was 0.75 and the “Mankin score (mean ± SD)” value (HLA-B27 rats [5]; [10]) was 4.5 ± 1.8. For the same compound, the “Synovitis score (mean ± SD)” value (HLA-B27 rats [5]; [10]) was 5.0 ± 2.5, the “Casein kinase II mRNA/18S rRNA (mean ± SEM)” value (casein kinase II mRNA) was 1.06 ± 0.17 and the “Time until stool character normalized” value (HLA-B27 rats [6]; 10 mg/kg orally daily) was ≤ 21 days. For the same compound, the “Stool score (group's average score)” value (HLA-B27 rats [6]; 10 mg/kg orally daily, Day 1, 3=diarrhea) was 2.75, the “Stool score (group's average score)” value (HLA-B27 rats [6]; 10 mg/kg orally daily, Day 2, 3=diarrhea) was 2.5 and the “Stool score (group's average score)” value (HLA-B27 rats [6]; 10 mg/kg orally daily, Day 3, 3=diarrhea) was 2.25. The “Stool score (group's average score)” value (HLA-B27 rats [6]; 10 mg/kg orally daily, Day 4, 3=diarrhea) was 2.5, the “Stool score (group's average score)” value (HLA-B27 rats [6]; 10 mg/kg orally daily, Day 5, 3=diarrhea) was 2.25 and the “Stool score (group's average score)” value (HLA-B27 rats [6]; 10 mg/kg orally daily, Day 6, 3=diarrhea) was 2.5. The “Stool score (group's average score)” value (HLA-B27 rats [6]; 10 mg/kg orally daily, Day 7, 3=diarrhea) was 2.5, the “Stool score (group's average score)” value (HLA-B27 rats [6]; 10 mg/kg orally daily, Day 8, 3=diarrhea) was 2 and the “Stool score (group's average score)” value (HLA-B27 rats [6]; 10 mg/kg orally daily, Day 9, 3=diarrhea) was 2. The “Stool score (group's average score)” value (HLA-B27 rats [6]; 10 mg/kg orally daily, Day 10, 3=diarrhea) was 1.5, the “Stool score (group's average score)” value (HLA-B27 rats [6]; 10 mg/kg orally daily, Day 11, 3=diarrhea) was 1.5 and the “Stool score (group's average score)” value (HLA-B27 rats [6]; 10 mg/kg orally daily, Day 12, 3=diarrhea) was 1.5. The “Stool score (group's average score)” value (HLA-B27 rats [6]; 10 mg/kg orally daily, Day 13, 3=diarrhea) was 1.75, the “Stool score (group's average score)” value (HLA-B27 rats [6]; 10 mg/kg orally daily, Day 14, 3=diarrhea) was 1.75 and the “Stool score (group's average score)” value (HLA-B27 rats [6]; 10 mg/kg orally daily, Day 15, 3=diarrhea) was 1.5. For the same compound, the “Stool score (group's average score)” value (HLA-B27 rats [6]; 10 mg/kg orally daily, Day 16, 3=diarrhea) was 1.5, the “Stool score (group's average score)” value (HLA-B27 rats [6]; 10 mg/kg orally daily, Day 17, 3=diarrhea) was 1.25 and the “Stool score (group's average score)” value (HLA-B27 rats [6]; 10 mg/kg orally daily, Day 18, 3=diarrhea) was 1.25. The “Stool score (group's average score)” value (HLA-B27 rats [6]; 10 mg/kg orally daily, Day 19, 3=diarrhea) was 1.25, the “Stool score (group's average score)” value (HLA-B27 rats [6]; 10 mg/kg orally daily, Day 20, 3=diarrhea) was 1.25 and the “Stool score (group's average score)” value (HLA-B27 rats [6]; 10 mg/kg orally daily, Day 21, 3=diarrhea) was 1.25. For the same compound, the “Stool score (group's average score)” value (HLA-B27 rats [6]; 10 mg/kg orally daily, Day 22, 3=diarrhea) was 1, the “Stool score (group's average score)” value (HLA-B27 rats [6]; 10 mg/kg orally daily, Day 23, 3=diarrhea) was 1 and the “Stool score (group's average score)” value (HLA-B27 rats [6]; 10 mg/kg orally daily, Day 24, 3=diarrhea) was 1. For the same compound, the “Stool score (group's average score)” value (HLA-B27 rats [6]; 10 mg/kg orally daily, Day 25, 3=diarrhea) was 1, the “Fibrosis (0–2)” value (HLA-B27 rats [6]; [11]) was 0.07 ± 0.13 and the “Inflammation (0–3)” value (HLA-B27 rats [6]; [11]) was 1.13 ± 0.43. The “Lesion depth (0–2)” value (HLA-B27 rats [6]; [11]) was 0.38 ± 0.43, the Total score (HLA-B27 rats [6]; [11]) was 2.00 ± 1.14 and the “Ulceration (0–2)” value (HLA-B27 rats [6]; [11]) was 0.44 ± 0.43. For the same compound, the “Progesterone receptor mRNA (arbitrary units; mean ± stdev)” value [7] was 33.7 ± 20.6 arbitrary units.
